Data as given in ChEMBL document CHEMBL1649181 (2009).

Legend:
Format in all cases: functional
[1] = system: Mycobacterium tuberculosis; assay: Antimicrobial activity against Mycobacterium tuberculosis harboring 202T to A mutation in thymidylate synthase A by agar dilution method
[2] = system: Mycobacterium tuberculosis; assay: Antimicrobial activity against Mycobacterium tuberculosis harboring 172L to P mutation in thymidylate synthase A by agar dilution method
[3] = system: Mycobacterium tuberculosis; assay: Antimicrobial activity against Mycobacterium tuberculosis harboring 183L to V mutation in thymidylate synthase A by agar dilution method
[4] = system: Mycobacterium tuberculosis; assay: Antimicrobial activity against Mycobacterium tuberculosis harboring 143L to P mutation in thymidylate synthase A by agar dilution method
[5] = system: Mycobacterium tuberculosis; assay: Antimicrobial activity against Mycobacterium tuberculosis harboring 146C to R mutation in thymidylate synthase A by agar dilution method
[6] = system: Mycobacterium tuberculosis; assay: Antimicrobial activity against Mycobacterium tuberculosis harboring 251Y to Stop mutation in thymidylate synthase A by agar dilution method
[7] = system: Mycobacterium tuberculosis; assay: Antimicrobial activity against Mycobacterium tuberculosis harboring 264Stop to R mutation in thymidylate synthase A by agar dilution method
[8] = system: Mycobacterium tuberculosis; assay: Antimicrobial activity against Mycobacterium tuberculosis harboring 182A to P mutation in thymidylate synthase A by agar dilution method
[9] = system: Mycobacterium tuberculosis; assay: Antimicrobial activity against Mycobacterium tuberculosis harboring 191Q to R mutation in thymidylate synthase A by agar dilution method
[10] = system: Mycobacterium tuberculosis; assay: Antimicrobial activity against Mycobacterium tuberculosis harboring 118L to Stop mutation in thymidylate synthase A by agar dilution method
[11] = system: Mycobacterium tuberculosis; assay: Antimicrobial activity against Mycobacterium tuberculosis harboring 11Q to Stop mutation in thymidylate synthase A by agar dilution method
[12] = system: Mycobacterium tuberculosis; assay: Antimicrobial activity against Mycobacterium tuberculosis harboring 164Y to Stop mutation in thymidylate synthase A by agar dilution method
[13] = system: Mycobacterium tuberculosis; assay: Antimicrobial activity against Mycobacterium tuberculosis harboring 261V to G mutation in thymidylate synthase A by agar dilution method
[14] = system: Mycobacterium tuberculosis; assay: Antimicrobial activity against Mycobacterium tuberculosis harboring 15G to R mutation in thymidylate synthase A by agar dilution method
[15] = system: Mycobacterium tuberculosis; assay: Antimicrobial activity against Mycobacterium tuberculosis harboring 127R to L mutation in thymidylate synthase A by agar dilution method
[16] = system: Mycobacterium tuberculosis; assay: Antimicrobial activity against Mycobacterium tuberculosis harboring 259A to P mutation in thymidylate synthase A by agar dilution method
[17] = system: Mycobacterium tuberculosis; assay: Antimicrobial activity against Mycobacterium tuberculosis harboring 83W to Stop mutation in thymidylate synthase A by agar dilution method
[18] = system: Mycobacterium tuberculosis; assay: Antimicrobial activity against Mycobacterium tuberculosis harboring 153Y to Stop mutation in thymidylate synthase A by agar dilution method

Measured: MIC

Nc1ccc(C(=O)O)c(O)c1 [AMINOSALICYLIC ACID]
<128 µg/mL: [1]
>8 µg/mL: [14]
64 µg/mL: [16]
<64 µg/mL: [3] | [9]
>128 µg/mL: all other assays above
